Assay results published in patent publication US20160228444A1, “NUCLEOSIDE ANALOGS AND USES THEREOF” (Ramot at Tel-Aviv University Ltd., priority 2015, published 2016).
Read-outs that look alike come from different tables or passages of the source.

What was measured:
[1] = tested on: HDACs of classes I and II; assay: HDAC activity in intact cells (Fluor de Lys kit); assay type: cell-based, human; details: both U251 and Daudi cells, 2 h, FIG. 1B
Experimental: U251 or Daudi cells seeded in 96-well plates (10^4 cells/well, in quadruplicates) in growth medium for 24 h were then treated as indicated for 2 h in the presence of the HDAC substrate (Fluor de Lys™). The reaction was terminated by the addition of the Fluor de Lys™ developer (Biomol Research Labs) and […] trichostatin A (TSA). All of the above reagents were included in a kit for measuring activities of HDACs of classes I and II (AK-503, Biomol Research Labs). The percentage inhibition was calculated from the ratio of the fluorescence (measured at 355 nm excitation and at 460 nm emission) in the drug treated compared with the untreated control culture.

[2] = tested on: H9C2 cardiomyoblasts; assay type: cell-based, rat
Experimental: (§1) Cell viability by flow cytometry analysis (FACS) analysis was determined using the Mebcyto apoptosis kit (MBL-Japan). The cell lines 4T1, U251 (2×10^5 cells/well), astrocytes and the cardiomyoblastic cell line H9C2 (5×10^5 cells/well) were seeded in six-well plates. Following treatment they were trypsinized, washed with PBS, resuspended in […] of binding buffer and double-stained with annexin V-FITC and propidium iodide (PI) according to the manufacturer's instructions. The stained cells were subjected to FACS analyses (Calibur cytometer, Becton Dickinson) where 30,000 cells were allowed to flow for each determination point and the percentage of cells in each state (viability or death) was defined by their distribution in fluorescence dot-plots using WinMdi 2.8 software (Scripps Research Institute, La-Jolla, USA).
(§2) The apoptotic effect of AN446, Dox and their combination was evaluated in U251 and 4T1 cancer cells, and in the non-cancerous rat cardiomyoblast cell line (H9C2) and in primary rat astrocytes, using procedures previously described for AN7 [Tarasenko et al., Invest New Drugs 2012, 30:130-143].

[3] = tested on: primary rat astrocytes; assay type: cell-based; details: noncancerous cells; combination compared to Dox alone; FIG. 1C
Experimental: as §1, §2

[4] = tested on: Hut-78 CTLC cell line; assay: MTT cell viability assay, 48 hours; assay type: cell-based, human
Experimental: (§3) The MyLa CTLC cell line (originating from an indolent mycosis fungoides patient) and the Hut-78 CTLC cell line (originating from an aggressive Sézary patient) were used to evaluate toxicity towards cancer cells, and peripheral blood lymphocytes (PBLs) from healthy volunteers were used to evaluate toxicity towards noncancerous cells.
(§4) Cell viability was determined by an MTT cell viability assay after 48 hours. MyLa cells (10^4 cells/well), Hut78 cells (5×10^3 cells/well) and normal PBLs (10^5 cells/well) were seeded in 96 well-plates. The PBLs were activated with 40 μg/10^6 cells of phytohemagglutinine (PHA) for 24 h before the experiment.

[5] = tested on: MyLa CTLC cell line; assay: MTT cell viability assay, 48 hours; assay type: cell-based, human
Experimental: as §3, §4

[6] = tested on: MDA-231 cells; assay: Median-effect drug interaction, Hoechst viability, 72 h; assay type: cell-based, human; details: for IC50: Homo sapiens
Experimental: (§5) The ratios of the drug combination were based on the ratio of their IC50 of each drug alone. Cell viability was determined by MTT assay, as described hereinabove. The drugs were added to the cells and incubated for 72 h.
(§6) Drug interaction in adherent cells was evaluated as above except that the viability was determined by Hoechst assay.

[7] = tested on: NCI-N87 gastric carcinoma cells; assay: as above; assay type: cell-based, human; details: for IC50: Homo sapiens
Experimental: as §5, §6

[8] = tested on: T47D cells; assay: as above; assay type: cell-based, human; details: for IC50: Homo sapiens
Experimental: as §5, §6

[9] = tested on: HUT-78 CTCL cells; assay: Median-effect drug interaction, MTT viability, 72 h; assay type: cell-based, human; details: Homo sapiens
Experimental: as §4, §5

[10] = tested on: acetylated H3 histone in U251 glioblastoma cells; assay: Histone H3 acetylation (Western blot), 24 hours; assay type: cell-based, human; details: FIG. 12
Experimental: The effects of the abovementioned HDAC inhibitors on histone acetylation were also compared. U251 and H9C2 cells were treated with the HDAC inhibitors for 24 hours (according to procedures described hereinabove with respect to FIGS. 9 and 10), and then subjected to Western blot analysis.

[11] = tested on: pH2AX in U251 cells; assay: Phosphorylated H2AX (Western blot), 24 or 48 hours; assay type: cell-based, human; details: FIG. 13A
Experimental: (§7) The effects of the abovementioned HDAC inhibitors on DNA damage and repair were then assessed by evaluating changes in levels of phosphorylated histone H2AX (pH2AX), a marker of DNA double-strand breaks, and Rad51, a marker of homologous recombination-guided DNA repair of double-strand breaks [Nagathihalli & Nagaraju, Biochim Biophys Acta 2011, 1816:209-218; Rogakou et al., J Biol Chem 1998, 273:5858-5868].
(§8) U251 and H9C2 cells were treated with the HDAC inhibitors for 24 or 48 hours, and then subjected to Western blot analysis.

[12] = tested on: Rad51 in U251 cells; assay: Rad51 (Western blot), 24 or 48 hours; assay type: cell-based, human; details: FIG. 14A
Experimental: as §7, §8

[13] = tested on: Rad51 in H9C2 cells; assay: Rad51 (Western blot), 24 or 48 hours; assay type: cell-based, rat; details: FIG. 14B
Experimental: as §7, §8

[14] = tested on: IL-6; assay: LPS-induced IL-6 secretion by normal human astrocytes (sandwich-ELISA); assay type: cell-based; details: 20 μM, LPS 1 μg/ml 24 hours, FIG. 16
Experimental: Normal human astrocytes (NHA) were treated with 20 μM AN446, and lipopolysaccharide (1 μg/ml) was then added for 24 hours, and the supernatants of the cultured cells were collected. IL-6 concentrations in cell culture supernatants were quantified by sandwich-ELISA using specific pairs of mAb antibodies (R&D).

[15] = tested on: 10 different cancer cell lines; assay: Viability assay (Hoechst for adherent cells, MTT for suspension cells), 72 h
Experimental: Hoechst assay: 22RV-1, MCF-7, MCF-7DX, 4T1, U251, and T47D cells (3×10^3 cells/well) and NCI-N87 (8×10^3 cells/well) were seeded in tissue culture in growth medium for 24 h in 96-well plates (in triplicate) and then exposed to different concentrations (titration) of the tested drug for 72 h at 37° C. The plates were then rinsed with PBS and fixed with 100 ml of 70% ethanol for 30 min. […] The fluorescence was measured (excitation at 390 nm and emission at 460 nm) with a Synergy III Fluorometer-Elisa reader (BioTek Instruments, Inc. Germany). The viability of cells grown in suspension was measured by the MTT assay. HL-60, Daudi and Jurkat cells were seeded (5×10^3 cells/well) in 96-well plates in growth medium and immediately exposed to different concentrations (titration) of the tested drugs (in triplicate). After 72 h incubation, the MTT reagent in PBS (10 ml of 5 mg/ml) was added to the cell suspension and incubated for an additional 3 h. Then, 100 ml of 0.04 M HCl in isopropanol was added and the absorbance at 570 nm measured using a Synergy III Fluorometer-spectrophotometer ELISA reader.

Q: CCCC(CCC)C(=O)Nc1nc2c(ncn2COCCOC(=O)C(CCC)CCC)c(=O)[nH]1 [AN446, N-valproyl-9-(2-valproyloxy)ethoxymethyl-guanine] was tested. Which “potency as HDAC inhibitor relative to AN7” value [1] did it give?
A: 2-3 fold

Q: And the “cell death in H9C2 cardiomyoblasts” value ([2]; 24, 48 or 72 hours, each inhibitor at its U251 IC50, FIG. 10)?
A: did not induce significant cardiomyocyte cell death

Q: What about the “viability / mortality of H9C2 cells” value ([2]; noncancerous cells, combination compared to Dox alone, FIG. 1C) of the same molecule?
A: did not substantially affect the viability

Q: What about the “viability / mortality of astrocytes” value [3] of the same molecule?
A: did not substantially affect the viability

Q: What about the IC50 ([4]; Homo sapiens, HuT78, 48 h, read-out: IC50 HUT78) of the same molecule?
A: 21 ± 1.3 µM

Q: And the “toxicity to Hut-78 cells relative to normal PBLs” value ([4]; from Table 1 IC50 values)?
A: about 10 fold

Q: What about the IC50 ([5]; Homo sapiens, 48 h, read-out: IC50 MyLa) of the same molecule?
A: 40 ± 2.3 µM

Q: And the “toxicity to MyLa cells relative to normal PBLs” value ([5]; from Table 1 IC50 values)?
A: about 5 fold

Q: What about the IC50 ([6]; MDA-MB-231, MDA-231, in combination with Dox, read-out: com IC50) of the same molecule?
A: 17 µM

Q: And the IC50 ([6]; MDA-MB-231, MDA-231, in combination with paclitaxel, read-out: com IC50)?
A: 14 ± 0.3 µM

Q: What about the IC50 ([6]; MDA-MB-231, MDA-231, single agent, Table 2, read-out: IC50) of the same molecule?
A: 38 µM

Q: What about the IC50 ([6]; MDA-MB-231, MDA-231, single agent, Table 3, read-out: IC50) of the same molecule?
A: 37.8 ± 1.1 µM

Q: What about the “CI (combination index with paclitaxel)” value ([6]; MDA-231) of the same molecule?
A: 0.8

Q: What about the IC50 ([7]; NCI-N87, NCI-N87, single agent, Table 2) of the same molecule?
A: 20 ± 3 µM

Q: And the IC50 ([7]; NCI-N87, NCI-N87, single agent, Table 3)?
A: 20 ± 3 µM

Q: What about the IC50 ([7]; NCI-N87, read-out: com IC50, NCI-N87, in combination with Dox) of the same molecule?
A: 6 µM

Q: What about the IC50 ([7]; NCI-N87, read-out: com IC50, NCI-N87, in combination with paclitaxel) of the same molecule?
A: 9.1 ± 0.4 µM

Q: What about the “CI (combination index with paclitaxel)” value ([7]; NCI-N87) of the same molecule?
A: 0.76

Q: What about the “CI (combination index with paclitaxel)” value [8] of the same molecule?
A: 1.4

Q: What about the IC50 ([8]; read-out: com IC50, T47D, in combination with Dox) of the same molecule?
A: 5.2 µM

Q: And the IC50 ([8]; read-out: com IC50, T47D, in combination with paclitaxel)?
A: 13.6 ± 0.6 µM

Q: What about the IC50 ([8]; single agent, Table 2) of the same molecule?
A: 21.7 µM

Q: And the IC50 ([8]; single agent, Table 3)?
A: 23.6 ± 0.6 µM

Q: What about the IC50 ([9]; HuT78, HUT-78, single agent, Table 2) of the same molecule?
A: 28 µM

Q: And the IC50 ([9]; HuT78, read-out: com IC50, HUT-78, in combination with Dox)?
A: 11 µM

Q: And the “histone acetylation in U251 cancer cells” value [10]?
A: increased histone acetylation considerably

Q: What about the “pH2AX levels in U251 cancer cells” value [11] of the same molecule?
A: considerably more effective than the other HDAC inhibitors at increasing pH2AX levels after 48 hours

Q: What about the “expression of Rad51 in U251 cancer cells” value [12] of the same molecule?
A: reduced expression of Rad51

Q: What about the “expression of Rad51 in cardiomyocytes (H9C2)” value [13] of the same molecule?
A: moderately increased expression

Q: And the “lipopolysaccharide-induced secretion of IL-6 by human astrocytes” value [14]?
A: inhibited

Q: And the IC50 ([15]; 72 h, read-out: IC50 (cell viability))?
A: 20 to 46 µM

Q: What about the “potency in reducing the viability of cancer cells relative to AN7” value ([15]; from IC50 values, FIG. 1A) of the same molecule?
A: 2-5 fold
